Test: Metabolic stability test (microsomal metabolism test)
Format: in vitro ADME
Details: pH 7.4; human-derived liver microsomes, test compound remaining after addition of NADP+ and incubation at 37°C for 30 minutes; read-out: metabolic stability of T/C%
Protocol: (Test Example 3 Metabolic stability test) 100 µL of 100 mM phosphate buffer solution (pH 7.4) containing 3 µM test compound was added to 100 µL of reaction solution containing 100 mM phosphate buffer solution (pH 7.4), 30 mM glucose 6-phosphate, 10 mM MgCl2·6H2O, 3 units/mL glucose 6-phosphate 1-dehydrogenase, and 0.3 to 1.5 mgP/mL human liver microsomes and the mixture was incubated at 37°C for 20 minutes. Then, 70 µL of 100 mM phosphate buffer solution (pH 7.4) containing 3 mM NADP^+ was added and the mixture was incubated at 37°C for 30 minutes to conduct a microsomal metabolism test. The metabolic stability was calculated according to the following formula: T/C (%) = ((concentration of test compound after addition of NADP)^+and incubation for30minutes)/((concentration of test compound before addition of NADP)^+) × 100. [formula] […]
For `CC(C)C1=C(C(=O)N2[C@H](C)CC[C@H]2C(=O)N2CCNC3(CC3)C2)SC2=N[C@@](C)(c3ccc(Cl)nc3)[C@@H](c3ccc(F)c(Cl)c3)N21` [Example 26, 7-[(5R)-1-{[(5R,6S)-5-(3-chloro-4-fluorophenyl)-6-(6-chloropyridin-3-yl)-3-isopropyl-6-methyl-5,6-dihydroimidazo[2,1-b][1,3]thiazol-2-yl]carbonyl}-5-methyl-L-prolyl]-4,7-diazaspiro[2.5]octane], the remaining at 0.5 h was ≥ 50%. In the case of `COc1ccc([C@]2(C)N=C3SC(C(=O)N4[C@H](C)CC[C@H]4C(=O)N4CCNC5(CC5)C4)=C(C(C)C)N3[C@@H]2c2ccc(Cl)c(F)c2)cc1` [Example 72, 7-[(5R)-1-{[(5R,6S)-5-(4-chloro-3-fluorophenyl)-3-isopropyl-6-(4-methoxyphenyl)-6-methyl-5,6-dihydroimidazo[2,1-b][1,3]thiazol-2-yl]carbonyl}-5-methyl-L-prolyl]-4,7-diazaspiro[2.5]octane], the remaining at 0.5 h is reported as ≥ 50%. In the case of `CC(C)C1=C(C(=O)N2[C@H](C)CC[C@H]2C(=O)N2CC3(CC3)N(C)C[C@H]2C)SC2=N[C@@](C)(c3ccc(Cl)nc3)[C@@H](c3ccc(Cl)c(F)c3)N21` [Example 24, (6R)-7-[(5R)-1-{[(5R,6S)-5-(4-chloro-3-fluorophenyl)-6-(6-chloropyridin-3-yl)-3-isopropyl-6-methyl-5,6-dihydroimidazo[2,1-b][1,3]thiazol-2-yl]carbonyl}-5-methyl-L-prolyl]-4,6-dimethyl-4,7-diazaspiro[2.5]octane], the remaining at 0.5 h is reported as ≥ 50%. For `CC(C)C1=C(C(=O)N2[C@H](C)CC[C@H]2C(=O)N2CCNC3(CC3)C2)SC2=N[C@@](C)(c3ccc(F)cc3)[C@@H](c3ccc(Cl)c(F)c3)N21` [Example 25, 7-[(5R)-1-{[(5R,6S)-5-(4-chloro-3-fluorophenyl)-6-(4-fluorophenyl)-3-isopropyl-6-methyl-5,6-dihydroimidazo[2,1-b][1,3]thiazol-2-yl]carbonyl}-5-methyl-L-prolyl]-4,7-diazaspiro[2.5]octane], the remaining at 0.5 h was ≥ 50%. For `CC(C)C1=C(C(=O)N2[C@H](C)CC[C@H]2C(=O)N2C[C@@H](C)N(C)C3(CC3)C2)SC2=N[C@@](C)(c3ccc(Cl)nc3)[C@@H](c3ccc(Cl)c(F)c3)N21` [Example 18, (5R)-7-[(5R)-1-{[(5R,6S)-5-(4-chloro-3-fluorophenyl)-6-(6-chloropyridin-3-yl)-3-isopropyl-6-methyl-5,6-dihydroimidazo[2,1-b][1,3]thiazol-2-yl]carbonyl}-5-methyl-L-prolyl]-4,5-dimethyl-4,7-diazaspiro[2.5]octane], the remaining at 0.5 h was ≥ 50%. For `CC(C)C1=C(C(=O)N2C[C@@](C)(O)C[C@H]2C(=O)N2CC3(CC3)NC[C@@H]2C)SC2=N[C@@](C)(c3ccc(Cl)nc3)[C@@H](c3ccc(Cl)c(F)c3)N21` [Example 68, (3S,5S)-1-{[(5R,6S)-5-(4-chloro-3-fluorophenyl)-6-(6-chloropyridin-3-yl)-3-isopropyl-6-methyl-5,6-dihydroimidazo[2,1-b][1,3]thiazol-2-yl]carbonyl}-3-methyl-5-{[(6S)-6-methyl-4,7-diazaspiro[2.5]oct-7-yl]carbonyl}pyrrolidin-3-ol], the remaining at 0.5 h was ≥ 50%. In the case of `CC(C)C1=C(C(=O)N2[C@H](C)CC[C@H]2C(=O)N2CCN(C)C3(CC3)C2)SC2=N[C@@](C)(c3ccc(Cl)cc3)[C@@H](c3ccc(Cl)c(F)c3)N21` [Example 6, 7-[(5R)-1-{[(5R,6S)-5-(4-chloro-3-fluorophenyl)-6-(4-chlorophenyl)-3-isopropyl-6-methyl-5,6-dihydroimidazo[2,1-b][1,3]thiazol-2-yl]carbonyl}-5-methyl-L-prolyl]-4-methyl-4,7-diazaspiro[2.5]octane], the remaining at 0.5 h is reported as ≥ 50%. For `CC(C)C1=C(C(=O)N2[C@H](C)CC[C@H]2C(=O)N2C[C@H](C)N(C)C3(CC3)C2)SC2=N[C@@](C)(c3ccc(Cl)nc3)[C@@H](c3ccc(Cl)c(F)c3)N21` [Example 20, (5S)-7-[(5R)-1-{[(5R,6S)-5-(4-chloro-3-fluorophenyl)-6-(6-chloropyridin-3-yl)-3-isopropyl-6-methyl-5,6-dihydroimidazo[2,1-b][1,3]thiazol-2-yl]carbonyl}-5-methyl-L-prolyl]-4,5-dimethyl-4,7-diazaspiro[2.5]octane], the remaining at 0.5 h was ≥ 50%. For `CC(C)C1=C(C(=O)N2[C@H](C)CC[C@H]2C(=O)N2CCNC3(CC3)C2)SC2=N[C@@](C)(c3ccc(C#N)cc3)[C@@H](c3ccc(Cl)c(F)c3)N21` [Example 30, 4-[(5R,6S)-5-(4-chloro-3-fluorophenyl)-2-{[(2S,5R)-2-(4,7-diazaspiro[2.5]oct-7-ylcarbonyl)-5-methylpyrrolidin-1-yl]carbonyl}-3-isopropyl-6-methyl-5,6-dihydroimidazo[2,1-b][1,3]thiazol-6-yl]benzonitrile], the remaining at 0.5 h was ≥ 50%. For `CCN(C(=O)C1=C(C(C)C)N2C(=N[C@@](C)(c3ccc(Cl)cc3)[C@H]2c2ccc(Cl)c(F)c2)S1)C1(C(=O)N2CCNC3(CC3)C2)CC1` [Example 52, (5R,6S)-5-(4-chloro-3-fluorophenyl)-6-(4-chlorophenyl)-N-[1-(4,7-diazaspiro[2.5]oct-7-ylcarbonyl)cyclopropyl]-N-ethyl-3-isopropyl-6-methyl-5,6-dihydroimidazo[2,1-b][1,3]thiazole-2-carboxamide], the remaining at 0.5 h was ≥ 50%. For `CC(C)C1=C(C(=O)N2[C@H](C)CC[C@H]2C(=O)N2CCNC3(CC3)C2)SC2=N[C@@](C)(c3ccc(Cl)cc3)[C@@H](c3ccc(Cl)c(F)c3)N21` [Example 5, 7-[(5R)-1-{[(5R,6S)-5-(4-chloro-3-fluorophenyl)-6-(4-chlorophenyl)-3-isopropyl-6-methyl-5,6-dihydroimidazo[2,1-b][1,3]thiazol-2-yl]carbonyl}-5-methyl-L-prolyl]-4,7-diazaspiro[2.5]octane], the remaining at 0.5 h was ≥ 50%. For `CC(C)C1=C(C(=O)N2[C@H](C)CC[C@H]2C(=O)N2CC3(CC3)N(C(=O)C(F)(F)F)C[C@@H]2C)SC2=N[C@@](C)(c3ccc(Cl)nc3)[C@@H](c3ccc(Cl)c(F)c3)N21` [Example 60, (6S)-7-[(5R)-1-{[(5R, 6S)-5-(4-chloro-3-fluorophenyl)-6-(6-chloropyridin-3-yl)-3-isopropyl-6-methyl-5,6-dihydroimidazo[2,1-b][1,3]thiazol-2-yl]carbonyl}-5-methyl-L-prolyl]-6-methyl-4-(trifluoroacetyl)-4,7-diazaspiro[2.5]octane], the remaining at 0.5 h was ≥ 50%. For `CC(C)C1=C(C(=O)N2[C@H](C)CC[C@H]2C(=O)N2CCN(C)C3(CC3)C2)SC2=N[C@@](C)(c3ccc(Cl)cc3)[C@@H](c3ccc(Cl)cc3)N21` [Example 2, 7-[(5R)-1-{[(5R,6S)-5,6-bis(4-chlorophenyl)-3-isopropyl-6-methyl-5,6-dihydroimidazo[2,1-b][1,3]thiazol-2-yl]carbonyl}-5-methyl-L-prolyl]-4-methyl-4,7-diazaspiro[2.5]octane], the remaining at 0.5 h was ≥ 50%. For `CC(C)C1=C(C(=O)N2[C@H](C)CC[C@H]2C(=O)N2CCNC3(CC3)C2)SC2=N[C@@](C)(c3ccc(Cl)nc3)[C@@H](c3ccc(Cl)c(Cl)c3)N21` [Example 31, 7-[(5R)-1-{[(5R,6S)-6-(6-chloropyridin-3-yl)-5-(3,4-dichlorophenyl)-3-isopropyl-6-methyl-5,6-dihydroimidazo[2,1-b][1,3]thiazol-2-yl]carbonyl}-5-methyl-L-prolyl]-4,7-diazaspiro [2.5] octane], the remaining at 0.5 h was ≥ 50%. In the case of `CC[C@H]1CNC2(CC2)CN1C(=O)[C@@H]1CCCN1C(=O)C1=C(C(C)C)N2C(=N[C@@](C)(c3ccc(Cl)nc3)[C@H]2c2ccc(Cl)c(F)c2)S1` [Example 61, (6S)-7-(1-{[(5R,6S)-5-(4-chloro-3-fluorophenyl)-6-(6-chloropyridin-3-yl)-3-isopropyl-6-methyl-5,6-dihydroimidazo[2,1-b][1,3]thiazol-2-yl]carbonyl}-L-prolyl)-6-ethyl-4,7-diazaspiro[2.5]octane], the remaining at 0.5 h is reported as ≥ 50%. With `CC(C)C1=C(C(=O)N2[C@H](C)CC[C@H]2C(=O)N2CCN(C)C3(CC3)C2)SC2=N[C@@](C)(c3ccc(Cl)nc3)[C@@H](c3ccc(Cl)c(F)c3)N21` [Example 12, 7-[(5R)-1-{[(5R,6S)-5-(4-chloro-3-fluorophenyl)-6-(6-chloropyridin-3-yl)-3-isopropyl-6-methyl-5,6-dihydroimidazo[2,1-b][1,3]thiazol-2-yl]carbonyl}-5-methyl-L-prolyl]-4-methyl-4,7-diazaspiro[2.5]octane] the remaining at 0.5 h was ≥ 50%. In the case of `CC(C)C1=C(C(=O)N2[C@H](C)CC[C@H]2C(=O)N2CCNC3(CC3)C2)SC2=N[C@@](C)(c3ccc(Cl)nc3)[C@@H](c3ccc(Cl)cc3)N21` [Example 8, 7-[(5R)-1-{[(5R,6S)-5-(4-chlorophenyl)-6-(6-chloropyridin-3-yl)-3-isopropyl-6-methyl-5,6-dihydroimidazo[2,1-b][1,3]thiazol-2-yl]carbonyl}-5-methyl-L-prolyl]-4,7-diazaspiro[2.5]octane], the remaining at 0.5 h is reported as ≥ 50%. In the case of `CC(C)C1=C(C(=O)N2[C@H](CF)CC[C@H]2C(=O)N2CCNC3(CC3)C2)SC2=N[C@@](C)(c3ccc(Cl)nc3)[C@@H](c3ccc(Cl)c(F)c3)N21` [Example 40, 7-[(5S)-1-{[(5R,6S)-5-(4-chloro-3-fluorophenyl)-6-(6-chloropyridin-3-yl)-3-isopropyl-6-methyl-5,6-dihydroimidazo[2,1-b][1,3]thiazol-2-yl]carbonyl}-5-(fluoromethyl)-L-prolyl]-4,7-diazaspiro[2.5]octane], the remaining at 0.5 h is reported as ≥ 50%.

Source: EP2298778A1, “IMIDAZOTHIAZOLE DERIVATIVE HAVING 4,7-DIAZASPIROÝ2.5¨OCTANE RING STRUCTURE” (Daiichi Sankyo Company, Limited, priority 2008, dated 2009)
